Measurements: patent US11076597B2, “High stress resistant plant growth regulator and preparation method and use thereof” (SHANGHAI INSTITUTES FOR BIOLOGICAL SCIENCES, CHINESE …, priority 2015, dated 2021)
pEC50: −log10 of the molar value. “Also recorded” adds a separate entry of the source.

What was measured:
[1] = test system: soybean GmPYL6 + Arabidopsis AtHAB1; assay: AlphaScreen assay: promotion of the interaction of soybean GmPYL6 with Arabidopsis HAB1; type: binding, soybean (GmPYL6); Arabidopsis thaliana (HAB1); conditions: FIG. 13a; 6×His-SUMO-tagged soybean GmPYL6, Biotin-tagged Arabidopsis HAB1 (aa 172-511), 100 nM each; pH 7.4; 1.5 h room temperature
cotton = assay: Leaf transpiration experiment, cotton; type: in vivo; conditions: 20 μM spray 25 days after sowing, two days after spraying; FIG. 6
Method: ABA synthesis mutant aba2-1 was used in Arabidopsis leaf transpiration experiment. […] Therefore, this mutant is used to exclude the effect of endogenous ABA on the transpiration experiment. The plants were sprayed with a solution containing 0.05% tween-20 and corresponding concentrations of (+)-ABA/0224/0304/0706/0715/0428 or 0.05% Tween-20 and 0.05% DMSO (control) after three weeks of continuous watering with an amount of 1.2 ml/pot. Leaf transpiration experiments of soybeans were conducted at 26° C. with long-day lighting and soybeans were sprayed with a solution containing 0.1% tween-20 and 20 μM (+)-ABA/0224/0304 compound or 0.1% Tween-20 and 0.05% DMSO (control) 14 days after sowing with an amount of 4 ml/pot; the leaf transpiration experiments of cottons were sprayed with a solution containing 0.1% tween-20 and 20 μM (+)-ABA/0224 compound or 0.1% Tween-20 and 0.05% DMSO, respectively, 25 days after sowing with an amount of 4 ml/pot; the leaf transpiration experiments of wheats were sprayed with a solution containing 0.1% tween-20 and 100 μM (+)-ABA/0224 compound or 0.1% Tween-20 and 0.05% DMSO (control) 18 days after sowing with an amount of 6 ml/pot. […]
In this experiment, the temperature change of leaf surface was observed and recorded by an infrared camera, thus reflecting the strength of plant transpiration. […]

[2] = test system: Arabidopsis thaliana Col-0 ecotype seeds; assay: Seed germination, Col-0 ecotype; type: in vivo
Method: Take the compounds 0428 and 0224 of the present invention as examples. The seeds of Arabidopsis thaliana Col-0 ecotype and PYL receptor triple mutant (pyr1;pyl1;pyl4) were sterilized with NaClO and placed at 4° C. for 3 days of the vernalization, and then sown in ½ MS solid medium containing 1 μM (+)-ABA/0224 compound or 0.05% DMSO (control) or in ½ MS solid medium containing 2 μM (+)-ABA/compound 0428 of the present invention or 0.05% DMSO (control). Two lines of plant were sown simultaneously on each medium of 6 cm diameter, with 15-20 seeds sown for each line and 4 replicates for each compound. Culture medium was placed at 22° C. with long-day culture. The seeds germinated on a solid medium containing 1 μM (+)-ABA/0224 compound were photographed 6 days after sowing, and seeds germinated on solid medium containing 2 μM (+)-ABA/0428 compound were photographed 9 days after sowing.

[3] = biological target: T1, PYL7 receptor-HAB1 protein phosphatase complex (Arabidopsis thaliana, UniProt Q1ECF1); assay: AlphaScreen assay, PYL7 receptor binding to HAB1; type: biochemical; parameters: unit not given beside the values; conditions: fraction of the EC50 of ABA; FIG. 2d
T1 construct: made in house; host or cells: E. coli BL21 (DE3)
T1 sequence (Q1ECF1 1-211): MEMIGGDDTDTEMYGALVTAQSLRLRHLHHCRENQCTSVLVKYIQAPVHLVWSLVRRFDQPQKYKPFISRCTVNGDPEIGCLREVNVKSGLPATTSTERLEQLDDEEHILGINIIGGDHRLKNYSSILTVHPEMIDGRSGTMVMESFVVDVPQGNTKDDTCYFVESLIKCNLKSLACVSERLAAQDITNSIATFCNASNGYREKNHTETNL
T1 sequence (Q9CAJ0 172-511 partner limits assumed): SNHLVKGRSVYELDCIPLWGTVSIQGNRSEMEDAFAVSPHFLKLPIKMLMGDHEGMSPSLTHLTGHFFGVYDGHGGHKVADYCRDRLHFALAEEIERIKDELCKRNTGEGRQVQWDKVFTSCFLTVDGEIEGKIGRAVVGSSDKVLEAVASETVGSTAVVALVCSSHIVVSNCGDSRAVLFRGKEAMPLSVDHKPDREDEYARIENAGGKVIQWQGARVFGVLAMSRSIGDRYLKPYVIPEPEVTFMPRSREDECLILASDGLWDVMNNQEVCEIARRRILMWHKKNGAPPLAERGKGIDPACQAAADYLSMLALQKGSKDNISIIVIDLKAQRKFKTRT
Method: The AlphaScreen kit (available from Perkin Elmer) was used, and the method was as follows: a 10× buffer (50 mM MOPS, pH 7.4, 50 mM NaF, 50 mM CHAPS, 0.1 mg/ml bovine serum albumin) diluted at 1:10, each of 100 nM HAB1 with Biotin tag sequence and PYR1/PYL1/PYL2/PYL7/GmPYL6/OsPYL2 protein with dual tags of 6×His and SUMO sequences, corresponding concentrations of (+)-ABA/0224/0304/0706/0708/0713/0715/0428/NC0F4, and 5 μg/ml donor beads and acceptor beads (available from Perkin Elmer) were contained in 150 μl of experimental system. After incubating for 1.5 hours at room temperature in the dark, it was placed into an Envision Plate Reader (available from Perkin Elmer) under the programmed AlphaScreen procedure for readings.
AlphaScreen technology was used to test the ability of the compounds of the present invention to promote PYL receptor binding to PP2C protein phosphatase (HAB1).

corn = assay: Soil drought experiment, corn; type: in vivo; conditions: 50 μM sprayed once a day for two days; 4 days of drought; FIG. 14b
Method: Soil drought experiments used for compound 0428 on soybean and maize were similar to that used for compound 0224 on soybeans, with only one plant contained in each pot. All soybean plants were long-day cultured at 26° C. Watering was stopped after the plant had three leaves in each of three groups and the plants with consistent growth were selected for drought treatment. As for corn, watering was stopped during the small bell-mouthed period for drought treatment. A solution containing 0.05% tween-20 and 50 μM (+)-0428 or 0.05% Tween-20 and 0.05% DMSO (control) was sprayed once on leaf surface on the first day and the second day of the drought, respectively, with a spray amount of 4 ml/pot. Meanwhile the pot position was also changed. The soybeans were re-watered 9 days after the drought, the corn was re-watered 4 days after the drought, and the photos were taken the next day.
In another group of experiments, soil drought experiments were performed on soybeans with three leaves in three groups or corn plants during the small trumpet period of the same size.

| SMILES | pEC50 [1] | leaf temperature versus DMSO control (leaf transpiration) (cotton) | inhibition of seed germination of Col-0 ([2]; 1 μM in 1/2 MS solid medium, 6 days after sowing, FIG. 3) | EC50 value with PYL7 receptor-HAB1 complex as fraction of that of ABA [3] | growth after drought and re-watering (corn) | inhibition of seed germination of Col-0 ([2]; 2 μM in 1/2 MS solid medium, 9 days after sowing, FIG. 15) |
| --- | --- | --- | --- | --- | --- | --- |
| CC1=CC(=O)CC(C)(C)[C@@]1(O)/C=C/C(C)=C\C(=O)O [ABA, Abscisic Acid, reference compound] | 7.05 | had no difference from that in the control group | – | – | – | – |
| CCCN1C(=O)OC(C)c2cc(NS(=O)(=O)Cc3c(F)c(F)c(C)c(F)c3F)ccc21 (stereo not drawn) [Compound 0224] | – | significantly reduce the transpiration rate of the cotton leaf; also recorded: still significant higher than that of plants in DMSO-sprayed control group | can inhibit the seed germination of Col-0; also recorded: could inhibit the seed germination of Col-0 ecotype | 1/10 | – | – |
| CCCN1C(=O)OC(C)(C)c2cc(NS(=O)(=O)Cc3c(F)c(F)c(C)c(F)c3F)ccc21 [Compound 0304] | – | – | – | 1/10 | – | – |
| CCCN1C(=O)OCc2cc(NS(=O)(=O)Cc3c(F)c(F)c(C)c(F)c3F)ccc21 [Compound 0428] | 8.20 | – | – | – | significantly better growth after re-watering than that in the DMSO-sprayed control group | can inhibit the seed germination of the Col-0; also recorded: could inhibit the seed germination of Col-0 ecotype |
